These compounds were tested against T1, sGC (Homo sapiens, UniProt Q02108+Q02153) (assay: lnCap cell-based cGMP expression assay (stimulating activity for sGC)). Conditions: with DETA-NO, 37° C. 30 min, HTRF cGMP.
T1 construct: Preparation of LNCap Cells; endogenous in cells; host or cells: LNCaP cells (14th generation), no transfection described
T1 sequence (Q02153 1-619): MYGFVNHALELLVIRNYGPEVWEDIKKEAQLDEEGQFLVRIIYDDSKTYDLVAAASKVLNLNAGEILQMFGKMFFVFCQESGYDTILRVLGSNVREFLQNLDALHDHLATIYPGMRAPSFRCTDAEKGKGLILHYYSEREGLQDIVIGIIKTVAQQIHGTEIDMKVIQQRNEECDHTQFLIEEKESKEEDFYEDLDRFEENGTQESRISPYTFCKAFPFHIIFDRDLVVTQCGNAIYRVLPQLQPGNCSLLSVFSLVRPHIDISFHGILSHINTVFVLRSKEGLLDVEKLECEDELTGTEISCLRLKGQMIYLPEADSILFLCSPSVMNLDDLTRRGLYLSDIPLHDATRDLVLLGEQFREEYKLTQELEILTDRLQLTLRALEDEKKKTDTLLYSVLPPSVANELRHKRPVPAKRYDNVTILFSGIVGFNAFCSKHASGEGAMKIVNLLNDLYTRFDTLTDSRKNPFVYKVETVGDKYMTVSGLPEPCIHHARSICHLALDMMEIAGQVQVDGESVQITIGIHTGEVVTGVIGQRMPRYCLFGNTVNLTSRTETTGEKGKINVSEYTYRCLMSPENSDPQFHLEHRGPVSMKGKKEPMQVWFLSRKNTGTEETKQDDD
T1 sequence (Q02108 1-690): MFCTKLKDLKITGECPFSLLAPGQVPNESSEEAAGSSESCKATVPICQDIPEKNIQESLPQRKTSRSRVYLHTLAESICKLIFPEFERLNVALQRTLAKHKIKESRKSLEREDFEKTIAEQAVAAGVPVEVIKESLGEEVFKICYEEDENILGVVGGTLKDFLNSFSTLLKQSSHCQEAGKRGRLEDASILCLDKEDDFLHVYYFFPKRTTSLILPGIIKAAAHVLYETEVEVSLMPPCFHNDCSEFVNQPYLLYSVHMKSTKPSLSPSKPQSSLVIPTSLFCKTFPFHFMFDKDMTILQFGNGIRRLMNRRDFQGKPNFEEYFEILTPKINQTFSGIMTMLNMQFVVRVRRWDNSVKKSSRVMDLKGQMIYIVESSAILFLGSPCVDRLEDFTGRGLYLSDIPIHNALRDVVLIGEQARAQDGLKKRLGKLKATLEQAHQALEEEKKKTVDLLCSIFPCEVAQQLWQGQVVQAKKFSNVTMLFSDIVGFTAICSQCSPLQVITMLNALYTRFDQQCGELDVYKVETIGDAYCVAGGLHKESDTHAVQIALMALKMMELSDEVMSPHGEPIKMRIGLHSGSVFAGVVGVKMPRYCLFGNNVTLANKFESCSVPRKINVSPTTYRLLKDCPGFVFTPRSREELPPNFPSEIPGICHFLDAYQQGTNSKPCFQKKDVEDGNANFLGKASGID
Description: I. lnCap Cell-Based cGMP Expression Assay
1) Preparation of Solutions
10% BSA (Bovine Serum Albumin)
10 g of BSA was dissolved in 100 mL of double distilled water (ddH2O) to give 10% BSA.
5 mM DETA (Diethylenetriamine)-NO
10 mg of DETA-NO was weighed out and dissolved in 12.2 mL of double distilled water (ddH2O) to give 5 mM DETA-NO, which was aliquoted and cryopreserved in a freezer at −20° C.
a) To 1 mL of a lysis buffer was added 50 μL of cGMP-D2 (D2-labeled cyclic guanosine monophosphate), and the mixture was well mixed.
b) To 1 mL of a lysis buffer was added 50 μL of anti-cGMP cryptate (Eu^3+ cryptate-labeled anti-cyclic guanosine monophosphate antibody), and the mixture was well mixed.
(1) The compounds were diluted to 5 mM with DMSO. 10 μL of each of the compounds was transferred to a shallow well plate for Echo.
(2) The compounds were gradiently diluted with Echo. Each of the compounds was diluted to obtain 10 concentration gradients, and 50 nL of each of the concentration gradients was added to a 384 microwell plate.
3) Preparation of LNCap Cells
(1) LNCap medium: RPMI1640+10% fetal bovine serum+1% […].
(2) Phosphate buffered saline, pancreatin and the medium used in the process of cell passaging were pre-heated in a water bath at 37° C.
(3) The cells (the 14th generation) were taken out of the 37° C., 5% CO2 incubator, and the old medium was pipetted off the culture flask.
(4) 5 mL of phosphate buffered saline was pipetted into the culture flask to rinse the cells, and then the liquid was discarded.
(5) 3 mL of pancreatin was pipetted into the culture flask. After the culture flask was shaken, the liquid was discarded, and the culture flask was placed in the incubator.
(6) After about 2 min the culture flask was taken out. […] The cell suspension was transferred to a 50 mL centrifuge tube.
(7) 0.7 mL of the cell suspension was pipetted into a counter cup and the cells were counted on a ViCell XR. The remaining cells were centrifuged at 1000 rpm for 5 min, and the supernatant was removed.
(8) The cells were washed by adding 10 mL of the washing buffer and centrifuged at 1000 rpm for 5 min, and the supernatant was removed.
(9) The assay buffer was added to adjust the cell concentration to 1.25×10^6/mL. The cells were added to the microwell plate at 8 μL/well.
4) Formulation and Addition of DETA-NO
(1) 10 μL of 5 mM DETA-NO was added to 1240 μL of the assay buffer and to 1657 μL of the assay buffer to give 40 μM DETA-NO and 30 μM DETA-NO, respectively.
(2) DETA-NO was transferred to the 384 microwell plate at 2 μL/well using Bravo.
(3) The mixtures were centrifuged at 1500 rpm for 5 min. The microwell plate was incubated at 37° C. for 30 min.
5) Preparation of cGMP Standard Curve
(1) 1 mM of the cGMP stock solution was diluted to 10 μM with the assay buffer. Then 4-fold gradient dilution was performed to obtain 11 concentration gradients.
(2) The cGMP dilutions were added to the microwell plate at 10 μL/well.
6) Addition of Detection Reagents and Plate Reading
(1) cGMP-D2 was transferred to the 384 microwell plate at 5 μL/well using Bravo. The mixtures were centrifuged at 1500 rpm for 1 min.
(2) The anti-cGMP cryptate was transferred to the 384 microwell plate at 5 μL/well using Bravo. The mixtures were centrifuged at 1500 rpm for 1 min.
(3) The plate was incubated at room temperature for 1 h.
(4) 665/615 was read using envision.
(1) cGMP standard curve: a standard curve was generated using Graphpad prism based on the cGMP concentrations and 665/615 ratios.
(2) Conversion of HTRF (homogeneous time-resolved fluorescence) ratios (665/615) to cGMP concentrations: in Graphpad prism, the HTRF ratios (665/615) were copied into the ratio column of the cGMP standard curve, and the “Log inhibitor vs response-variable slope” analysis was run with “interpolate” selected to convert the HTRF ratios (665/615) to cGMP concentrations. […]

Row | SMILES | MEC: minimum effective concentration to stimulate cGMP production (three times greater than the basal value) in lnCap cells [nM]
1 | CCOC(=O)C12CCOc3nc(-c4nn(Cc5ccccc5F)c5ncc(F)cc45)nc(c31)NC2=O (stereo not drawn) [Compound 048] | 33.55
2 | COC(=O)NC12CCOc3nc(-c4nn(Cc5ccccc5F)c5ncc(F)cc45)nc(c31)NC2=O (stereo not drawn) [Compound 049] | 126.5
3 | CCNC(=O)OC12CCOc3nc(-c4nn(Cc5ccccc5F)c5ncc(F)cc45)nc(c31)NC2=O (stereo not drawn) [Compound 050] | 231.7

— patent US20230257398A1, “PYRIMIDINE-BASED TRICYCLIC COMPOUND AND USE THEREOF” (Chia Tai Tianqing Pharmaceutical Group Co., Ltd., priority 2020, published 2023)
